Source: US10696677B2 (Research Triangle Institute, priority 2016, dated 2020)
Read-outs that look alike come from different tables or passages of the source.

Legend:
hCB1 [1] = molecular target: T1, hCB1 (Homo sapiens, UniProt P21554); test: functional fluorescent CB1 activated Gαq16-coupled intracellular calcium mobilization assay in CHO-K1 cells; assay type: cell-based; parameters: expressed in transfected cells; host or cells: CHO-K1 (membranes); settings: average of 3-6 measurements, read-out: Apparent antagonist dissociation constant (Ke) at hCB1
hCB1 [2] = molecular target: T1, hCB1; test: radioligand displacement binding at CB1 (membranes of CHO-K1 cells over-expressing receptor)
Method: (§1) All compounds were characterized by H^1 NMR and evaluated using a calcium mobilization assay. […] Further characterization of select compounds was performed using radioligand displacement of [3H]1 and equilibrium dissociation constant (Ki) values were determined.

MDCK = MDCK BBB Assay; assay type: in vitro ADME; settings: for % Permeable: MDCK BBB assay
hCB2 = hCB2 (Homo sapiens, UniProt P34972); test: radioligand displacement binding at CB2 ([3H]CP55940, membranes of CHO-K1 cells over-expressing receptor)
Method: as §1

[3] = read-out: Binding affinity (Ki) at hCB1, radioligand displacement, CHO-K1 membranes, average of 3-6 measurements
[4] = read-out: Binding affinity (Ki) at hCB2, displacement of [3H]CP55940, CHO-K1 membranes, average of 3-6 measurements

Chain of hCB2 (P34972 whole entry): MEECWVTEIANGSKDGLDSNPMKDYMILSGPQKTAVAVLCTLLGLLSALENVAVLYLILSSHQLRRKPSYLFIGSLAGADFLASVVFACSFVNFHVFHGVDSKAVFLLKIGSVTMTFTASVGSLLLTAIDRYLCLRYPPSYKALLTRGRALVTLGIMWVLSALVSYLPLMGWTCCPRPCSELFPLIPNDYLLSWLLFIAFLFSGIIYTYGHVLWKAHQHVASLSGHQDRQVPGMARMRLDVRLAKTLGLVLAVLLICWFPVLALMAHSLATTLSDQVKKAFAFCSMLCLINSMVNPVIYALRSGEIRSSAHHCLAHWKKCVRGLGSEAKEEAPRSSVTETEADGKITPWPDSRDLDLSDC
T1 sequence (P21554 whole entry): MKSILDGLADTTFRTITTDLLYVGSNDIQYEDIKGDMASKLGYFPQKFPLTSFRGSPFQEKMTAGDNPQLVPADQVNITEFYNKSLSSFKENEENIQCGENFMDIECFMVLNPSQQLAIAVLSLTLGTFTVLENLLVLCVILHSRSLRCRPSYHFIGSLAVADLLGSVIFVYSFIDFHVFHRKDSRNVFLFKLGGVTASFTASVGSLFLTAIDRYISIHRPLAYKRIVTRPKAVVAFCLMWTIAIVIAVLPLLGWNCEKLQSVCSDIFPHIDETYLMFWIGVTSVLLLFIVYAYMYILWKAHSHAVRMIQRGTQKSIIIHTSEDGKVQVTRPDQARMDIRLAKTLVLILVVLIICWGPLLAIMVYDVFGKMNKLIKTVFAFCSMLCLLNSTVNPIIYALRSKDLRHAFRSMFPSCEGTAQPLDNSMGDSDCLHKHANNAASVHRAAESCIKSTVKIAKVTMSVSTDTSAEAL

Kb (hCB1 [1]) [µM]	SMILES	Ki (hCB1 [2]; [3]) [µM]	% Permeable (MDCK) [%]	melting point [°C]	Ki (hCB2; [4]) [µM]	also measured
0.6	N=C(Nc1ccc(F)cc1)NC1CCN(c2ncnc3c2nc(-c2ccccc2Cl)n3-c2ccc(Cl)cc2)CC1 [Compound 27, 1-{1-[8-(2-chlorophenyl)-9-(4-chlorophenyl)-9H-purin-6-yl]piperidin-4-yl}-3-(4-fluorophenyl)guanidine]					
0.021	O/N=C(/c1ccc(F)cc1)C1CCN(c2ncnc3c2nc(-c2ccccc2Cl)n3-c2ccc(Cl)cc2)CC1 [Compound 29, (E)-{1-[8-(2-chlorophenyl)-9-(4-chlorophenyl)-9H-purin-6-yl]piperidin-4-yl}(4-fluorophenyl)methanone oxime]					Ki (hCB1 [2]): 0.004 µM
0.012	Clc1ccc(-n2c(-c3ccccc3Cl)nc3c(N4CCC(c5nc6ccccc6[nH]5)CC4)ncnc32)cc1 [Compound 30, 6-[4-(1H-benzimidazol-2-yl)piperidin-1-yl]-8-(2-chlorophenyl)-9-(4-chlorophenyl)-9H-purine]	0.047				
0.0014	Clc1ccc(-n2c(-c3ccccc3Cl)nc3c(N4CCC(Nc5ccccc5)CC4)ncnc32)cc1 [Compound 31, 1-[8-(2-chlorophenyl)-9-(4-chlorophenyl)-9H-purin-6-yl]-N-phenylpiperidin-4-amine]		0			MDCK BBB Assay (Basolateral/Apical Peak Area Ratio) Mean (MDCK; MDCK cells): 0
0.1	Clc1ccc(-n2c(-c3ccccc3Cl)nc3c(N4CCC(Nc5ccncc5)CC4)ncnc32)cc1 [Compound 36, N-{1-[8-(2-chlorophenyl)-9-(4-chlorophenyl)-9H-purin-6-yl]piperidin-4-yl}pyridin-4-amine]					
0.059	Clc1ccc(-n2c(-c3ccccc3Cl)nc3c(N4CCC(NCc5ccccc5)CC4)ncnc32)cc1 [Compound 37, N-benzyl-1-[8-(2-chlorophenyl)-9-(4-chlorophenyl)-9H-purin-6-yl]piperidin-4-amine]					
0.36	Clc1ccc(-n2c(-c3ccccc3Cl)nc3c(N4CCC(NCc5ccncc5)CC4)ncnc32)cc1 [Compound 38, 1-[8-(2-chlorophenyl)-9-(4-chlorophenyl)-9H-purin-6-yl]-N-(pyridin-4-ylmethyl)piperidin-4-amine]					
0.082	Fc1ccc(CNC2CCN(c3ncnc4c3nc(-c3ccccc3Cl)n4-c3ccc(Cl)cc3)CC2)cc1 [Compound 40, 1-[8-(2-chlorophenyl)-9-(4-chlorophenyl)-9H-purin-6-yl]-N-(4-fluorobenzyl)piperidin-4-amine]					
0.185	CN(Cc1ccc(F)cc1)C1CCN(c2ncnc3c2nc(-c2ccccc2Cl)n3-c2ccc(Cl)cc2)CC1 [Compound 41, 1-[8-(2-chlorophenyl)-9-(4-chlorophenyl)-9H-purin-6-yl]-N-(4-fluorobenzyl)-N-methylpiperidin-4-amine]					
	O=C(Nc1ccc(F)c(F)c1)N1CCN(c2ncnc3c2nc(-c2ccccc2Cl)n3-c2ccc(Cl)cc2)CC1 [Compound 42, 4-[8-(2-Chlorophenyl)-9-(4-chlorophenyl)-9H-purin-6-yl]-N-(3,4-difluorophenyl)piperazine-1-carboxamide]		0	205 to 207	4.2	
	O=C(Nc1ccc(F)cc1)N1CCN(c2ncnc3c2nc(-c2ccccc2Cl)n3-c2ccc(Cl)cc2)CC1 [Compound 43, 4-[8-(2-Chlorophenyl)-9-(4-chlorophenyl)-9H-purin-6-yl]-N-(4-fluorophenyl)piperazine-1-carboxamide]	0.019		234 to 235	2	
0.22	Clc1ccc(-n2c(-c3sccc3Cl)nc3c(N4CCN(Cc5ccccc5Cl)CC4)ncnc32)cc1 [Compound 52, 6-[4-(2-chlorobenzyl)piperazin-1-yl]-9-(4-chlorophenyl)-8-(3-chlorothiophen-2-yl)-9H-purine]					
0.11	Cc1noc(C)c1-c1nc2c(N3CCN(Cc4ccccc4Cl)CC3)ncnc2n1-c1ccc(Cl)cc1 [Compound 53, 6-[4-(2-chlorobenzyl)piperazin-1-yl]-9-(4-chlorophenyl)-8-(3,5-dimethylisoxazol-4-yl)-9H-purine]					
	O=C(Nc1ccccc1F)N1CCN(c2ncnc3c2nc(-c2ccccc2Cl)n3-c2ccc(Cl)cc2)CC1 [Compound 56, 4-[8-(2-Chlorophenyl)-9-(4-chlorophenyl)-9H-purin-6-yl]-N-(2-fluorophenyl)piperazine-1-carboxamide]	0.006		214 to 215	1.3	
	O=C(Nc1ccc(F)cc1F)N1CCN(c2ncnc3c2nc(-c2ccccc2Cl)n3-c2ccc(Cl)cc2)CC1 [Compound 57, 4-[8-(2-Chlorophenyl)-9-(4-chlorophenyl)-9H-purin-6-yl]-N-(2,4-difluorophenyl)piperazine-1-carboxamide]			220 to 221	3.2	Ki (hCB1 [2]): 0.009 µM
	CCS(=O)(=O)N1CCN(c2ncnc3c2nc(-c2ccccc2Cl)n3-c2ccc(Cl)cc2)CC1 [Compound 78, 8-(2-Chlorophenyl)-9-(4-chlorophenyl)-6-[4-(ethylsulfonyl)piperazin-1-yl]-9H-purine]		18		0.98	Ki (hCB1 [2]): 0.0027 µM
	CCCS(=O)(=O)N1CCN(c2ncnc3c2nc(-c2ccccc2Cl)n3-c2ccc(Cl)cc2)CC1 [Compound 79, 8-(2-Chlorophenyl)-9-(4-chlorophenyl)-6-[4-(propylsulfonyl)piperazin-1-yl]-9H-purine]	0.0012	6		0.848	
	O=S(=O)(C1CC1)N1CCN(c2ncnc3c2nc(-c2ccccc2Cl)n3-c2ccc(Cl)cc2)CC1 [Compound 84, 8-(2-Chlorophenyl)-9-(4-chlorophenyl)-6-[4-(cyclopropylsulfonyl)piperazin-1-yl]-9H-purine]		4		2.3	Ki (hCB1 [2]): 0.0053 µM
	CS(=O)(=O)N1CCN(c2ncnc3c2nc(-c2ccccc2Cl)n3-c2ccc(Cl)cc2)CC1 [Compound 86, 8-(2-Chlorophenyl)-9-(4-chlorophenyl)-6-[4-(methylsulfonyl)piperazin-1-yl]-9H-purine]		14			Ki (hCB1 [2]): 0.0244 µM; Ki (hCB2): 1.65 µM
	O=C(N1CCN(c2ncnc3c2nc(-c2ccccc2Cl)n3-c2ccc(Cl)cc2)CC1)C(F)(F)F [Compound 87, 8-(2-Chlorophenyl)-9-(4-chlorophenyl)-6-[4-(trifluoroacetyl)piperazin-1-yl]-9H-purine]	0.001	~100			Ki (hCB2): 0.134 µM
	CCCCC(=O)N1CCN(c2ncnc3c2nc(-c2ccccc2Cl)n3-c2ccc(Cl)cc2)CC1 [Compound 103, 8-(2-Chlorophenyl)-9-(4-chlorophenyl)-6-(4-pentanoylpiperazin-1-yl)-9H-purine]		0		0.403	Ki (hCB1 [2]): 0.0055 µM
	FC(F)(F)Oc1ccccc1CN1CCN(c2ncnc3c2nc(-c2ccccc2Cl)n3-c2ccc(Cl)cc2)CC1 [Compound 112, 8-(2-Chlorophenyl)-9-(4-chlorophenyl)-6-{4-[2-(trifluoromethoxy)benzyl]piperazin-1-yl}-9H-purine]			110 to 111		Ki (hCB2): 76 µM
	O=C(NC1CCCC1)N1CCN(c2ncnc3c2nc(-c2ccccc2Cl)n3-c2ccc(Cl)cc2)CC1 [Compound 117, 4-[8-(2-Chlorophenyl)-9-(4-chlorophenyl)-9H-purin-6-yl]-N-cyclopentylpiperazine-1-carboxamide]	0.005	3	248 to 250	0.74	
	O=C(NC1(C(F)(F)F)CCCC1)N1CCN(c2ncnc3c2nc(-c2ccccc2Cl)n3-c2ccc(Cl)cc2)CC1 [Compound 118, 4-[8-(2-Chlorophenyl)-9-(4-chlorophenyl)-9H-purin-6-yl]-N-[1-(trifluoromethyl)cyclopentyl]piperazine-1-carboxamide]	0.024		202 to 204	1.3	
	O=C(NC1CCCCC1)N1CCN(c2ncnc3c2nc(-c2ccccc2Cl)n3-c2ccc(Cl)cc2)CC1 [Compound 119, 4-[8-(2-chlorophenyl)-9-(4-chlorophenyl)-9H-purin-6-yl]-N-cyclohexylpiperazine-1-carboxamide]	0.0014		228 to 229	0.62	
	O=C(NCC1CCCCC1)N1CCN(c2ncnc3c2nc(-c2ccccc2Cl)n3-c2ccc(Cl)cc2)CC1 [Compound 120, 4-[8-(2-chlorophenyl)-9-(4-chlorophenyl)-9H-purin-6-yl]-N-(cyclohexylmethyl)piperazine-1-carboxamide]	0.043		105 to 107	0.74	
	O=C(Nc1ccccc1)N1CCN(c2ncnc3c2nc(-c2ccccc2Cl)n3-c2ccc(Cl)cc2)CC1 [Compound 121, 4-[8-(2-chlorophenyl)-9-(4-chlorophenyl)-9H-purin-6-yl]-N-phenylpiperazine-1-carboxamide]	0.006		121 to 123	2.4	
	O=C(Nc1ccccn1)N1CCN(c2ncnc3c2nc(-c2ccccc2Cl)n3-c2ccc(Cl)cc2)CC1 [Compound 122, 4-[8-(2-Chlorophenyl)-9-(4-chlorophenyl)-9H-purin-6-yl]-N-(pyridin-2-yl)piperazine-1-carboxamide]	0.006	1	120 to 122	7.1	
0.053	Clc1ccc(-n2c(-c3ccccc3Cl)nc3c(N4CCN(c5nc6ccccc6[nH]5)CC4)ncnc32)cc1 [Compound 123, 6-[4-(1H-benzimidazol-2-yl)piperazin-1-yl]-8-(2-chlorophenyl)-9-(4-chlorophenyl)-9H-purine]					
